Laboratory results reported in paper PMC7460559 (International Journal of Molecular Sciences, 2020).
In brackets after ≈: the same amount, converted by molar mass. Residues, ends and D or L forms follow the SMILES beside them. No end group written: not given here.

Legend:
P. aeruginosa 3547 = test: MIC assay, drug-resistant strain; format: cell-based; settings: Pseudomonas aeruginosa; P. aeruginosa 3547, resistant isolate from otitis media patients; peptides in DMEM supplemented with 10% FBS
From the text: (§1) Escherichia coli (ATCC 25922) and S. aureus (ATCC 25923) were obtained from American Type Culture Collection (Manassas, VA, USA). Escherichia coli CCARM 1229, E. coli CCARM 1238, S. aureus CCARM 3089, S. aureus 3114, Salmonella typhimurium CCARM 8009, and S. typhimurium CCARM 8013 were obtained from the culture collection of antibiotic-resistant microbes at Seoul Women’s University, Republic of Korea. Pseudomonas aeruginosa 3547 and P. aeruginosa 4007 were resistant strains isolated from hospital patients with otitis media at Chonnam National University, Republic of Korea. The rifampin-resistant S. aureus PBEL 1 and vancomycin-resistant S. aureus PBEL 2 strains used in this study were generated from wild-type S. aureus (ATCC 25923).
(§2) Bacterial cells were incubated within culture media at 37 °C. The peptide antimicrobial activity was determined by the minimal inhibition concentration (MIC) assay. […] The samples were incubated for 18–24 h at 37 °C. After incubation, the minimum inhibitory concentrations (MICs) of the peptides were determined by measuring the absorbance at an optical density of 600 nm (OD600).

P. aeruginosa 4007 = test: MIC assay, drug-resistant strain; format: cell-based; settings: Pseudomonas aeruginosa; P. aeruginosa 4007, resistant isolate from otitis media patients; peptides in DMEM supplemented with 10% FBS
From the text: as §1, §2

S. aureus CCARM 3089 = test: MIC assay, drug-resistant strain; format: cell-based; settings: Staphylococcus aureus, CCARM3089, peptides in DMEM supplemented with 10% FBS
From the text: as §1, §2

S. aureus CCARM 3114 = test: MIC assay, drug-resistant strain; format: cell-based; settings: Staphylococcus aureus, CCARM3114, peptides in DMEM supplemented with 10% FBS
From the text: as §1, §2

S. aureus PBEL 1 = test: MIC assay, drug-resistant strain; format: cell-based; settings: Staphylococcus aureus, PBEL1; S. aureus PBEL 1, rifampin-resistant (induced); peptides in DMEM supplemented with 10% FBS
From the text: as §1, §2

S. aureus PBEL 2 = test: MIC assay, drug-resistant strain; format: cell-based; settings: Staphylococcus aureus, PBEL2; S. aureus PBEL 2, vancomycin-resistant (induced); peptides in DMEM supplemented with 10% FBS
From the text: as §1, §2

[1] = system: S. typhimurium CCARM 8009; test: MIC assay, drug-resistant strain; format: cell-based; settings: Salmonella enterica, peptides in DMEM supplemented with 10% FBS
From the text: as §1, §2

[2] = system: S. typhimurium CCARM 8013; test: MIC assay, drug-resistant strain; format: cell-based; settings: Salmonella enterica, peptides in DMEM supplemented with 10% FBS
From the text: as §1, §2

E. coli CCARM 1229 = test: MIC assay, drug-resistant strain; format: cell-based; settings: Escherichia coli, CCARM1229, peptides assayed in DMEM supplemented with 10% FBS
From the text: as §1, §2

E. coli CCARM 1238 = test: MIC assay, drug-resistant strain; format: cell-based; settings: Escherichia coli, CCARM1238, peptides assayed in DMEM supplemented with 10% FBS
From the text: as §1, §2

[3] = Reverse-phase HPLC retention time (hydrophobicity); format: physicochemical; settings: mean retention time, Jupiter proteo C18 column (250 × 4.6 mm, 90 Å, 4 μm), 280 nm, used by the paper as measure of hydrophobicity
Description: Peptides were synthesized by using a 9-fluorenylmethoxycarbonyl (Fmoc) solid-phase method on Rink amide 4-methyl benzhydrylamine resin (Novabiochem, Darmstadt, Germany) (0.55 mmol/g) using a Liberty microwave peptide synthesizer (CEM, Matthews, NC, USA). To generate N-terminal fluorescently-labeled peptides, resin-bound peptides were treated with 20% (v/v) piperidine in dimethylformamide (DMF) to remove the Fmoc protection groups from the N-terminal amino acids. Rhodamine-SE dye was incubated with resin-bound peptide in DMF (3–4 eq.) containing 5% (v/v) diisopropylethylamine, and gently mixing for 24 h at room temperature in the dark. The resin was washed with dichloromethane (DCM). The peptides were cleaved from the corresponding resins, precipitated with ether, and extracted. The crude peptides were purified by reverse-phase preparative high-performance liquid chromatography (HPLC) on a Jupiter C18 column (250 × 21.2 mm, […], 300 Å; Phenomenex, Torrance, CA, USA) using a 0–60% acetonitrile gradient in water with 0.05% trifluoroacetic acid. The purity of the extracted peptide was then determined by analytical reversed-phase HPLC (wavelength of 280 nm) using a Jupiter proteo C18 column (250 × 4.6 mm, 90 Å, 4 μm). The molecular masses of the peptides were confirmed on a matrix-assisted laser desorption ionization mass spectrometer (Kratos Analytical, Kyoto, Japan).

[4] = system: sheep red blood cells (sheep RBCs); test: Hemolysis; format: cell-based; settings: data overlapped with those of HPA3NT3-A2
Description: Fresh samples of sheep blood defibrinated cells (MBcell, Seoul, Korea) were centrifuged at 800× g and washed with phosphate-buffered saline (PBS) until the supernatant was clear. Serial dilutions (two-fold) of peptide prepared in PBS were plated, and sheep red blood cells (sheep RBCs) were added to a final concentration of 8% (v/v) in a 96-well plate. The samples were incubated for 1 h at 37 °C with gentle agitation and then centrifuged at 800× g for 10 min. The absorbance of the supernatant was measured at 414 nm; each measurement was performed in triplicate and the percentage hemolysis was calculated using Equation (1):% hemolysis = [(Abs414 in the peptide solution − Abs414 in PBS)/(Abs414 in 0.1% Triton-X100 − Abs414 in PBS)] × 100(1) where 100% hemolysis was defined as the absorbance of sheep RBCs containing 1% Triton X-100 and zero hemolysis was the value measured for sheep RBCs alone in PBS [10].

S. aureus ATCC 25923 = test: Resistance development assay; format: cell-based, Staphylococcus aureus; settings: S. aureus ATCC 25923, 12 passages from 1/2 MIC well, DMEM supplemented with 10% fetal bovine serum, MICs in duplicate
Description: Daily MICs were determined over 15 days for each agent using cells collected from the well determined as having half the MIC (1/2 MIC well). Briefly, cells from the 1/2 MIC well from the preceding day’s assay plate were resuspended and the OD600 was measured. The suspensions were then adjusted to achieve a bacterial concentration of 5 × 10^5 cfu/mL in DMEM supplemented with 10% fetal bovine serum and then mixed with each agent at the appropriate concentration. All MICs were determined in duplicate [26].

[5] = system: PC/SM (2:1, w/w) small unilamellar vesicle (SUV) liposomes; test: Binding assay with SUV liposomes by CD; settings: 50 μM peptide, 300 μM SUVs, 10 mM HEPES buffer (pH 7.4), 25 °C, n = 3
Description: (§3) SUVs were prepared by drying of phosphatidylethanolamine (PE)/phosphatidyl glycerol (PG) (7:3, w/w) or phosphatidylcholine (PC)/sphingomyelin (SM) (2:1, w/w) under nitrogen, suspension by vortex mixing in 10 mM HEPES buffer (pH 7.4), and sonication. To prepare the SUVs, the lipid diffusions were sonicated in a bath-type sonicator for 20 min. Next, the suspensions of preparation vesicles were extruded 10 times through polycarbonate membranes ([…] pores). The concentration of SUV liposomes was determined using a standard phosphate assay. Circular dichroism (CD) spectra were recorded at 25 °C on a Jasco 810 spectropolarimeter. The peptide (50 μM) solution was added to 400 μL of 10 mM HEPES buffer or to 300 μM SUVs. At least three scans were acquired at 250 to 190 nm.

[6] = system: PE/PG (7:3, w/w) small unilamellar vesicle (SUV) liposomes; test: Binding assay with SUV liposomes by CD; settings: 50 μM peptide, 300 μM SUVs, 10 mM HEPES buffer (pH 7.4), 25 °C, n = 3
Description: as §3

[7] = system: HaCa T (human keratinocyte) cells; settings: at 250 μM; cited from earlier work
Description: (§4) Previously, we determined the properties of HPA3NT3 as an antimicrobial peptide. This peptide has an amphipathic helical structure, strong antimicrobial activity, and cytotoxic ability at 250 μM (sheep RBCs, 68.4%; HaCaT cells, 85.1%). This peptide was designed to have low cytotoxicity at higher concentrations and was generated by substituting phenylalanine with alanine and lysine (F1A, F8A, and N13K) to enhance its antimicrobial activity by increasing the net positive charge.

[8] = system: sheep red blood cells (sheep RBCs); settings: at 250 μM; cited from earlier work
Description: as §4

Compound: CC1(C)S[C@@H]2[C@H](NC(=O)[C@H](N)c3ccccc3)C(=O)N2[C@H]1C(=O)O [Amp, ampicillin]
- MIC (P. aeruginosa 3547): > 512 µM
- MIC (P. aeruginosa 4007): > 512 µM
- MIC (S. aureus CCARM 3089): > 512 µM
- MIC (S. aureus CCARM 3114): > 512 µM
- MIC (S. aureus PBEL 1): > 512 µM
- MIC (S. aureus PBEL 2): > 512 µM
- MIC [1]: > 512 µM
- MIC [2]: > 512 µM

Compound: O=C(O)c1cn(C2CC2)c2cc(N3CCNCC3)c(F)cc2c1=O [Cip, ciprofloxacin]
- MIC (P. aeruginosa 3547): > 512 µM
- MIC (P. aeruginosa 4007): > 512 µM
- MIC (S. aureus CCARM 3089): > 512 µM
- MIC (S. aureus CCARM 3114): > 512 µM
- MIC (S. aureus PBEL 1): > 512 µM
- MIC (S. aureus PBEL 2): > 512 µM

Compound: CC[C@H]1OC(=O)[C@H](C)[C@@H](O[C@H]2C[C@@](C)(OC)[C@@H](O)[C@H](C)O2)[C@H](C)[C@@H](O[C@@H]2O[C@H](C)C[C@H](N(C)C)[C@H]2O)[C@](C)(O)C[C@@H](C)C(=O)[C@H](C)[C@@H](O)[C@]1(C)O [Ery, erythromycin]
- MIC (E. coli CCARM 1229): 256 µM (≈ 188 µg/mL)
- MIC (E. coli CCARM 1238): 256 µM (≈ 188 µg/mL)
- MIC (P. aeruginosa 3547): > 512 µM
- MIC (P. aeruginosa 4007): > 512 µM
- MIC (S. aureus CCARM 3089): > 512 µM
- MIC (S. aureus CCARM 3114): > 512 µM
- MIC (S. aureus PBEL 1): > 512 µM
- MIC (S. aureus PBEL 2): > 512 µM
- MIC [1]: 256 µM (≈ 188 µg/mL)
- MIC [2]: 128 µM (≈ 93.9 µg/mL)

Compound: CC[C@H](C)[C@H](NC(=O)[C@@H](CCCCN)NC(=O)[C@@H](CCCCN)NC(=O)[C@H](C)NC(=O)[C@H](CC(C)C)NC(=O)[C@@H](CCCCN)NC(=O)[C@@H](CCCCN)NC(=O)[C@H](CC(C)C)NC(=O)[C@H](CCCNC(=N)N)NC(=O)[C@@H](CCCCN)NC(=O)[C@H](C)N)C(=O)N[C@@H](Cc1c[nH]c2ccccc12)C(=O)N[C@H](CCCCN)C(=O)N[C@@H](Cc1c[nH]c2ccccc12)C(=O)N[C@H](CCCCN)C(N)=O [HPA3NT3-A2D] (HELM PEPTIDE1{A.[dK].R.L.[dK].[dK].L.A.[dK].[dK].I.W.[dK].W.[dK].[am]}$$$$V2.0; N-terminus assumed)
- Retention Time [3]: 11.97 min
- hemolysis against sheep RBCs (in words) [4]: non-hemolysis
- increase in MIC (resistance development) (S. aureus ATCC 25923): no change in the MIC
- interaction with PC/SM liposome (CD) [5]: low levels of α-helical structures
- interaction with PE/PG liposome (CD) [6]: low levels of α-helical structures

Compound: CO[C@H]1/C=C/O[C@@]2(C)Oc3c(C)c(O)c4c(O)c(c(/C=N/N5CCN(C)CC5)c(O)c4c3C2=O)NC(=O)/C(C)=C\C=C\[C@H](C)[C@H](O)[C@@H](C)[C@@H](O)[C@@H](C)[C@H](OC(C)=O)[C@@H]1C [rifampin]
- increase in MIC (resistance development) (S. aureus ATCC 25923): 8192 fold

Compound: FKRLKKLFKKIWNWK-NH2 [HPA3NT3]
- Retention Time [3]: 20.94 min
- interaction with PC/SM liposome (CD) [5]: strongest interaction and α-helical structure
- interaction with PE/PG liposome (CD) [6]: strongest interaction and α-helical structure
- toxicity against HaCaT cells [7]: 85.1%
- hemolytic activity against sheep RBCs [8]: 68.4%
